This is an account of results in ChEMBL document CHEMBL1201862, “PubChem BioAssay data set” (2004).

Among the test systems are NCI-H23; SF-295; SN12C; SK-MEL-5; UACC-62; IGROV-1; OVCAR-8; UO-31; KM12; HCT-116; HT-29; EKVX; SNB-75; SK-MEL-28; U-251; CAKI-1; SNB-19; RPMI-8226; ACHN.
Holding throughout (experiment): DTP human tumour cell line panel, 48 h

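Test compounds were applied to cells in 96-well plates for 48 hours at 5 doses. At the GI50, growth is halved.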 Calls of active or inactive are those of the source. No stated cut-off is given here; in the data, active = GI50 up to about 1.1 µM and inactive = higher.

One may read the GI50 as the concentration at which growth is held to half of that of the control.

For the compound `C[C@H]1COC(c2ccccn2)=N1`, the GI50 in the test with NCI-H23, in the test with SF-295, in the test with SN12C, with SK-MEL-5, with UACC-62 and with IGROV-1 was > 100 µM (inactive) each time. Also, the GI50 in the test on OVCAR-8, in the test with UO-31, in the test with KM12, in the test on HCT-116, in the test with HT-29 and with EKVX was > 100 µM (inactive) throughout. The GI50 with SNB-75, in the test on SK-MEL-28, in the test on U-251, with CAKI-1, in the test on SNB-19 and with RPMI-8226 was > 100 µM (inactive) throughout.

In the case of `CCCNC(=O)C(C)C1CCC2(C)C=CC(=O)C(C)=C2C1O` (stereo not drawn), the GI50 in the test with NCI-H23, with SF-295, with SN12C, with SK-MEL-5, in the test on UACC-62 and with IGROV-1 was > 100 µM (inactive) throughout. In addition, the GI50 in the test on OVCAR-8, with UO-31, in the test with KM12, in the test on HCT-116, in the test with HT-29 and in the test with EKVX was > 100 µM (inactive) each time. The GI50 in the test on SNB-75, in the test with SK-MEL-28, in the test on U-251, in the test on CAKI-1, in the test on SNB-19 and in the test on RPMI-8226 was > 100 µM (inactive) in each case.

Take `CC/C=C(\C(=C/CC)[N+](=O)[O-])[N+](=O)[O-]`: the GI50 in the test with NCI-H23 was 18.9 µM (inactive); with SF-295, > 100 µM (inactive); in the test with SN12C, 18.9 µM (inactive); in the test with SK-MEL-5 it was 31 µM (inactive); in the test with UACC-62 it was 18 µM (inactive); in the test on IGROV-1, 17.6 µM (inactive). In addition, the GI50 with OVCAR-8 is 21.4 µM (inactive); in the test with UO-31 it was 18.9 µM (inactive); in the test with KM12, > 10 µM (inactive); in the test with HCT-116, 19.9 µM (inactive); with HT-29, 16.4 µM (inactive); in the test with EKVX, 15.6 µM (inactive). In addition, the GI50 in the test with SNB-75 is > 100 µM (inactive); in the test with SK-MEL-28 it was 19.9 µM (inactive); with U-251, 17.7 µM (inactive); with CAKI-1, 23.2 µM (inactive); with SNB-19 it was > 100 µM (inactive); in the test with ACHN it was 18.7 µM (inactive). Further, in the test with RPMI-8226, the GI50 is 24.1 µM (inactive).

On to `CCCCCCOP(=O)(OCCCCCC)C(NC(=O)OCC)(C(F)(F)F)C(F)(F)F`, for which the GI50 in the test with SF-295 was 30.3 µM (inactive); in the test on SN12C, 34 µM (inactive); in the test with SK-MEL-5, 20 µM (inactive); with UACC-62 it was 41.6 µM (inactive); in the test on IGROV-1 it was 34 µM (inactive); in the test with OVCAR-8, 36.1 µM (inactive). Also, the GI50 in the test with UO-31 was 28.6 µM (inactive); in the test with KM12 it was 39.1 µM (inactive); with HCT-116, 27.4 µM (inactive); in the test on HT-29 it was 51.4 µM (inactive); in the test with EKVX it was 64.6 µM (inactive); in the test with SNB-75, 64.3 µM (inactive). In addition, the GI50 with SK-MEL-28 was 41.9 µM (inactive); in the test with U-251, 36.8 µM (inactive); in the test with CAKI-1, 51.6 µM (inactive); in the test on SNB-19, 39.4 µM (inactive); with ACHN, 28.8 µM (inactive); with RPMI-8226, > 100 µM (inactive).

For `CCNCCCCNCC`, the GI50 was > 3750 µM (inactive) with NCI-H23; > 3750 µM (inactive) with SF-295; > 2330 µM (inactive) in the test with SN12C; > 3750 µM (inactive) in the test on SK-MEL-5; 2750 µM (inactive) in the test on UACC-62; > 3750 µM (inactive) in the test on IGROV-1. Further, the GI50 in the test on OVCAR-8 was > 3750 µM (inactive); with UO-31 it was > 1230 µM (inactive); in the test with KM12, > 3750 µM (inactive); with HCT-116, > 2480 µM (inactive); in the test with HT-29 it was > 3750 µM (inactive); in the test with EKVX it was > 3750 µM (inactive). Further, the GI50 with SNB-75 is > 3750 µM (inactive); with SK-MEL-28, > 3750 µM (inactive); with U-251, > 3230 µM (inactive); in the test with CAKI-1, > 3750 µM (inactive); in the test with SNB-19 it was > 3750 µM (inactive); in the test on RPMI-8226 it was > 3750 µM (inactive).

As for `COc1ccc2c(c1)O[C@H]1c3ccc(O)cc3OC[C@@H]21`, the GI50 is 26 µM (inactive) in the test on NCI-H23; 35.2 µM (inactive) in the test on SF-295; 38.8 µM (inactive) in the test with SN12C; 17.3 µM (inactive) with SK-MEL-5; 14.3 µM (inactive) with UACC-62; 17.5 µM (inactive) in the test on IGROV-1. Moreover, the GI50 was 36 µM (inactive) in the test with OVCAR-8; 20 µM (inactive) with UO-31; 27.6 µM (inactive) in the test with HCT-116; 34.4 µM (inactive) in the test with HT-29; 34 µM (inactive) in the test on EKVX; 11.2 µM (inactive) in the test on SNB-75. Further, the GI50 in the test with U-251 was 27.9 µM (inactive); in the test on CAKI-1, 24.1 µM (inactive); in the test on SNB-19, 68.1 µM (inactive); in the test with ACHN, 27.2 µM (inactive); with RPMI-8226, 25.7 µM (inactive).

Regarding `CCC(C)C(=O)c1c(O)c(C/C=C(\C)CCC=C(C)C)c(O)c2c(C(O)CC)cc(=O)oc12` (stereo not drawn), the GI50 in the test on NCI-H23 is 1.56 µM (inactive); with SF-295 it was 2.81 µM (inactive); in the test with SN12C, 1.71 µM (inactive); in the test with SK-MEL-5 it was 1.19 µM (inactive); with UACC-62 it was 1.3 µM (inactive); with IGROV-1 it was 2.68 µM (inactive). Also, the GI50 with UO-31 was 2.24 µM (inactive); in the test on KM12, 2.51 µM (inactive); in the test with HCT-116 it was 0.867 µM (active); in the test on HT-29, 1.27 µM (inactive); in the test with EKVX, 3.6 µM (inactive); with SNB-75, 1.49 µM (inactive). Besides, the GI50 in the test on SK-MEL-28 was 1.68 µM (inactive); with U-251, 1.51 µM (inactive); with CAKI-1 it was 2.23 µM (inactive); with SNB-19, 4.23 µM (inactive); in the test with ACHN it was 2.2 µM (inactive); in the test with RPMI-8226, 1.09 µM (active).

As for `O=C1OC(c2ccccc2Br)=N/C1=C/c1ccccc1`, the GI50 in the test with NCI-H23 is 32.8 µM (inactive); in the test on SF-295, 34.1 µM (inactive); in the test with SK-MEL-5, 35.2 µM (inactive); in the test on UACC-62 it was 37.1 µM (inactive); in the test with IGROV-1 it was 39.4 µM (inactive); in the test on OVCAR-8, 21.6 µM (inactive). Also, the GI50 is 45.9 µM (inactive) in the test with UO-31; 19 µM (inactive) with KM12; 37.2 µM (inactive) in the test on HCT-116; 32.1 µM (inactive) in the test with HT-29; > 100 µM (inactive) in the test on EKVX; 53.5 µM (inactive) in the test with SNB-75. Moreover, the GI50 was 41.8 µM (inactive) in the test on SK-MEL-28; 26.6 µM (inactive) in the test with U-251; 35.2 µM (inactive) in the test with CAKI-1; 24.9 µM (inactive) in the test on SNB-19; 27.5 µM (inactive) in the test on ACHN; 33.1 µM (inactive) with RPMI-8226.

With `[N-]=[N+]=CC(=O)CCC(NC(=O)C(CCC(=O)C=[N+]=[N-])NC(=O)CCC(N)C(=O)O)C(=O)O` (stereo not drawn), the GI50 in the test with NCI-H23, in the test on SF-295, in the test on SN12C, in the test with SK-MEL-5, in the test on UACC-62 and with IGROV-1 was > 100 µM (inactive) each time. In addition, the GI50 with OVCAR-8 is > 100 µM (inactive); with UO-31, > 100 µM (inactive); with KM12, 31.6 µM (inactive); in the test with HCT-116, > 100 µM (inactive); in the test with HT-29 it was > 100 µM (inactive); in the test on EKVX, > 100 µM (inactive). Besides, the GI50 in the test with SNB-75, in the test with SK-MEL-28, in the test with U-251, with CAKI-1, with SNB-19 and in the test on RPMI-8226 was > 100 µM (inactive) each time.

In the case of `COc1ccc2nc3c(C(=O)NCCN(C)C)cccc3cc2c1`, the GI50 in the test on NCI-H23 was 2.09 µM (inactive); in the test on SF-295 it was 1.96 µM (inactive); with SN12C it was 1.75 µM (inactive); with SK-MEL-5, 1.64 µM (inactive); in the test with UACC-62 it was 1.46 µM (inactive); with IGROV-1, 2.03 µM (inactive). For the same compound, the GI50 is 1.47 µM (inactive) with OVCAR-8; 1.44 µM (inactive) with UO-31; 2.96 µM (inactive) in the test with KM12; 0.908 µM (active) with HCT-116; 1.29 µM (inactive) with HT-29; 2.34 µM (inactive) in the test with EKVX. In addition, the GI50 is 2.17 µM (inactive) in the test on SNB-75; 2.98 µM (inactive) in the test with SK-MEL-28; 3.48 µM (inactive) with U-251; 0.103 µM (active) in the test with CAKI-1; 2.23 µM (inactive) with SNB-19; 2.16 µM (inactive) in the test with RPMI-8226.

On to `NC(Cc1cc(I)c(O)c(I)c1)C(=O)O` (stereo not drawn), for which the GI50 was > 287 µM (inactive) with NCI-H23; > 500 µM (inactive) in the test with SF-295; > 500 µM (inactive) with SN12C; > 500 µM (inactive) in the test on SK-MEL-5; > 279 µM (inactive) with UACC-62; > 500 µM (inactive) in the test with IGROV-1. For the same compound, the GI50 was > 500 µM (inactive) in the test on OVCAR-8; > 500 µM (inactive) in the test with UO-31; > 500 µM (inactive) with KM12; 470 µM (inactive) in the test on HCT-116; > 346 µM (inactive) in the test on HT-29; > 316 µM (inactive) with EKVX. Besides, the GI50 was > 249 µM (inactive) in the test with SNB-75; > 500 µM (inactive) in the test with SK-MEL-28; > 500 µM (inactive) with U-251; 45.4 µM (inactive) with CAKI-1; 249 µM (inactive) with SNB-19; > 500 µM (inactive) in the test with RPMI-8226.
